Assay results from patent publication US11739074B2, “Ras inhibitors” (Revolution Medicines, Inc., priority 2019, dated 2023).
Read-outs that look alike come from different tables or passages of the source.

Tests used:
Assay type in all cases: cell-based
[1] = tested on: NCI-H358 (K-Ras G12C); experiment: CellTiter-Glo cell viability assay, H358; settings: Homo sapiens, NCI-H358, 120 h, NCI-H358, K-Ras G12C, 5-day treatment; read-out: H358 Cell Viability IC50
Description: Determination of Cell Viability in RAS Mutant Cancer Cell Lines
Protocol: CellTiter-Glo® Cell Viability Assay
Note—The following protocol describes a procedure for monitoring cell viability of K-Ras mutant cancer cell lines in response to a compound of the invention. Other RAS isoforms may be employed, though the number of cells to be seeded will vary based on cell line used.
Test compounds (132.5 nL) were directly dispensed into the assay plates containing cells. […] On day 5, assay plates and their contents were equilibrated to room temperature for approximately 30 minutes. […] Luminescence was measured using the PerkinElmer Enspire. Data were normalized by the following: (Sample signal/Avg. DMSO)*100. The data were fit using a four-parameter logistic fit.

[2] = tested on: AsPC-1 (K-Ras G12D); experiment: CellTiter-Glo cell viability assay, AsPC-1; settings: Homo sapiens, ASPC1, 120 h
Procedure, shortened: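 Viability is scored by CellTiter-Glo luminescence on day 5 of compound treatment, relative to vehicle (DMSO) wells set as 100%, with a four-parameter logistic fit.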

[3] = tested on: AsPC-1 (K-Ras G12D); experiment: Potency assay: pERK in AsPC-1 cells; settings: Homo sapiens
[4] = AsPC-1, K-Ras G12D, 5-day treatment, read-out: AsPC-1 Cell Viability IC50
[5] = ASPC1, AsPC-1 cells, K-Ras G12D, read-out: pERK EC50 (AsPC-1 KRAS G12D)

| SMILES | IC50 [1] | IC50 [2, 4] | EC50 [3, 5] | EC50 ([3]; ASPC1, read-out: pERK EC50 (AsPC-1 KRAS G12D)) | IC50 ([2]; read-out: AsPC-1 Cell Viability IC50, AsPC-1, K-Ras G12D, 5-day treatment) |
| --- | --- | --- | --- | --- | --- |
| CCn1c(-c2cnccc2COC)c2c3cc(ccc31)-c1cccc(c1)C[C@H](NC(=O)[C@H](C(C)C)N(C)C(=O)CCN=C=NCc1ccc(OC)cc1)C(=O)N1CCC[C@H](N1)C(=O)OCC(C)(C)C2 (atropisomer, axis not shown) [18 A and B] | 1000 to 10000 nM | 1000 to 10000 nM |  |  |  |
| CCn1c(-c2cnccc2COC)c2c3cc(ccc31)-c1cc(O)cc(c1)C[C@H](NC(=O)[C@H](C(C)C)N(C)C(=O)CCN(C)C(=O)[C@H]1CN1)C(=O)N1CCC[C@H](N1)C(=O)OCC(C)(C)C2 (single isomer, unassigned) [Compound 41] | 10 to 100 nM | > 10000 nM |  |  |  |
| CCn1c(-c2cnccc2COC)c2c3cc(ccc31)-c1cccc(c1)C[C@H](NC(=O)[C@H](C(C)C)N(C)C(=O)CCN=C=NCCCSC)C(=O)N1CCC[C@H](N1)C(=O)OCC(C)(C)C2 [16 A and B] | 1000 to 10000 nM | 1000 to 10000 nM |  |  |  |
| CCn1c(-c2cnccc2COC)c2c3cc(ccc31)-c1cccc(c1)C[C@H](NC(=O)[C@H](C(C)C)N(C)C(=O)CCN=C=NCc1ccccc1)C(=O)N1CCC[C@H](N1)C(=O)OCC(C)(C)C2 [19 A and B] | 1000 to 10000 nM | 100 to 1000 nM |  |  |  |
| CCn1c(-c2cnccc2COC)c2c3cc(ccc31)-c1cccc(c1)C[C@H](NC(=O)[C@H](C(C)C)N(C)C(=O)CCN=C=Nc1ccccc1OC)C(=O)N1CCC[C@H](N1)C(=O)OCC(C)(C)C2 [20 A and B] | 1000 to 10000 nM | > 10000 nM |  |  |  |
| CCn1c(-c2cnccc2COC)c2c3cc(ccc31)-c1cccc(c1)C[C@H](NC(=O)[C@H](C(C)C)N(C)C(=O)CCN=C=NCCOC)C(=O)N1CCC[C@H](N1)C(=O)OCC(C)(C)C2 [23 A and B] | 1000 to 10000 nM | 1000 to 10000 nM |  |  |  |
| CCn1c(-c2cnccc2COC)c2c3cc(ccc31)-c1cccc(c1)C[C@H](NC(=O)[C@H](C(C)C)N(C)C(=O)CCN=C=Nc1ccc(OC)cc1OC)C(=O)N1CCC[C@H](N1)C(=O)OCC(C)(C)C2 [24 A and B] | 1000 to 10000 nM | > 10000 nM |  |  |  |
| CCn1c(-c2cnccc2COC)c2c3cc(ccc31)-c1cccc(c1)C[C@H](NC(=O)[C@H](C(C)C)N(C)C(=O)CCN=C=NCc1c(OC)cccc1OC)C(=O)N1CCC[C@H](N1)C(=O)OCC(C)(C)C2 [62 A and B] | 1000 to 10000 nM | 1000 to 10000 nM |  |  |  |
| CCn1c(-c2cnccc2COC)c2c3cc(ccc31)-c1cccc(c1)C[C@H](NC(=O)[C@H](C(C)C)N(C)C(=O)CCN=C=NCCc1cccs1)C(=O)N1CCC[C@H](N1)C(=O)OCC(C)(C)C2 [68 A and B] | 1000 to 10000 nM | 1000 to 10000 nM |  |  |  |
| CCn1c(-c2cnccc2COC)c2c3cc(ccc31)-c1cc(O)cc(c1)C[C@H](NC(=O)[C@H](C(C)C)N(C)C(=O)[C@H]1CCN(C(=O)[C@@H]3CN3)C1)C(=O)N1CCC[C@H](N1)C(=O)OCC(C)(C)C2 [Compound 2] | 10 to 100 nM | > 10000 nM |  |  |  |
| CCn1c(-c2cnccc2COC)c2c3cc(ccc31)-c1cc(O)cc(c1)C[C@H](NC(=O)[C@H](C(C)C)N(C)C(=O)C1CCN(C(=O)[C@H]3CN3)CC1)C(=O)N1CCC[C@H](N1)C(=O)OCC(C)(C)C2 [Compound 3] | 100 to 1000 nM | > 10000 nM |  |  |  |
| CCn1c(-c2cnccc2COC)c2c3cc(ccc31)-c1cc(O)cc(c1)C[C@H](NC(=O)[C@H](C(C)C)N(C)C(=O)C1CCN(C(=O)[C@@H]3CN3)CC1)C(=O)N1CCC[C@H](N1)C(=O)OCC(C)(C)C2 [Compound 4] | 100 to 1000 nM | > 10000 nM |  |  |  |
| CCn1c(-c2cnccc2COC)c2c3cc(ccc31)-c1cc(O)cc(c1)C[C@H](NC(=O)[C@H](C(C)C)N(C)C(=O)C1CN(C(=O)[C@H]3CN3)C1)C(=O)N1CCC[C@H](N1)C(=O)OCC(C)(C)C2 [Compound 5] | 10 to 100 nM | > 10000 nM |  |  |  |
| CCn1c(-c2cnccc2COC)c2c3cc(ccc31)-c1cc(O)cc(c1)C[C@H](NC(=O)[C@H](C(C)C)N(C)C(=O)C1CN(C(=O)[C@@H]3CN3)C1)C(=O)N1CCC[C@H](N1)C(=O)OCC(C)(C)C2 [Compound 6] | 100 to 1000 nM | > 10000 nM |  |  |  |
| CCn1c(-c2cnccc2COC)c2c3cc(ccc31)-c1cc(O)cc(c1)C[C@H](NC(=O)[C@H](C(C)C)N(C)C(=O)CCN(C)C(=O)[C@@H]1CN1)C(=O)N1CCC[C@H](N1)C(=O)OCC(C)(C)C2 [Compound 40] | 100 to 1000 nM | > 10000 nM |  |  |  |
| CCn1c(-c2cnccc2COC)c2c3cc(ccc31)-c1cc(O)cc(c1)C[C@H](NC(=O)[C@H](C(C)C)N(C)C(=O)N1CCCN(C(=O)[C@H]3CN3)CC1)C(=O)N1CCC[C@H](N1)C(=O)OCC(C)(C)C2 [Compound 44] | < 10 nM | 1000 to 10000 nM |  |  |  |
| CCn1c(-c2cnccc2COC)c2c3cc(ccc31)-c1cc(O)cc(c1)C[C@H](NC(=O)[C@H](C(C)C)N(C)C(=O)N1CCCN(C(=O)[C@@H]3CN3)CC1)C(=O)N1CCC[C@H](N1)C(=O)OCC(C)(C)C2 [Compound 45] | 100 to 1000 nM | > 10000 nM |  |  |  |
| CCn1c(-c2cnccc2COC)c2c3cc(ccc31)-c1cc(O)cc(c1)C[C@H](NC(=O)[C@H](C(C)C)N(C)C(=O)c1ccc(NC(=O)[C@@H]3CN3)cn1)C(=O)N1CCC[C@H](N1)C(=O)OCC(C)(C)C2 [Compound 46] | 100 to 1000 nM | > 10000 nM |  |  |  |
| CCn1c(-c2cnccc2COC)c2c3cc(ccc31)-c1cccc(c1)C[C@H](NC(=O)[C@H](C(C)C)N(C)C(=O)CCN=C=Nc1ccc(N(C)C)cc1)C(=O)N1CCC[C@H](N1)C(=O)OCC(C)(C)C2 [Compound 66] | 1000 to 10000 nM | > 10000 nM |  |  |  |
| CCn1c(-c2cnccc2COC)c2c3cc(ccc31)-c1cccc(c1)C[C@H](NC(=O)[C@H](C(C)C)N(C)C(=O)CCN=C=Nc1ccc(N3CCOCC3)cc1)C(=O)N1CCC[C@H](N1)C(=O)OCC(C)(C)C2 [Compound 67] | > 10000 nM | > 10000 nM |  |  |  |
| CCn1c(-c2cccnc2[C@H](C)OC)c2c3cc(ccc31)-c1cc(O)cc(c1)C[C@H](NC(=O)[C@H](C1CCCC1)N(C)C(=O)CN(C)C(=O)[C@@H]1N[C@@H]1C1(F)CC1)C(=O)N1CCC[C@H](N1)C(=O)OCC(C)(C)C2 [Compound 314] |  | 100 to 1000 nM | < 5000 nM |  |  |
| CCn1c(-c2cccnc2[C@H](C)OC)c2c3cc(ccc31)-c1cc(O)cc(c1)C[C@H](NC(=O)[C@H](C1CCCC1)N(C)C(=O)CN(C)C(=O)[C@H]1N[C@H]1C1(F)CC1)C(=O)N1CCC[C@H](N1)C(=O)OCC(C)(C)C2 [Compound 315] |  | 100 to 1000 nM | < 5000 nM |  |  |
| CCn1c(-c2cccnc2[C@H](C)OC)c2c3cc(ccc31)-c1cc(O)cc(c1)C[C@H](NC(=O)[C@H](C1CCCC1)N(C)C(=O)[C@@H](C)N(C)C(=O)[C@@H]1N[C@@H]1C1CC1)C(=O)N1CCC[C@H](N1)C(=O)OCC(C)(C)C2 [Compound 327] |  | 1000 to 10000 nM | < 5000 nM |  |  |
| CCn1c(-c2cccnc2[C@H](C)OC)c2c3cc(ccc31)-c1cc(O)cc(c1)C[C@H](NC(=O)[C@H](C(C)C)N(C)C(=O)c1ccc([C@@H]3CN3)nc1)C(=O)N1CCC[C@H](N1)C(=O)OCC(C)(C)C2 [Example 87, 6-((S)-aziridin-2-yl)-N-((2S)-1-(((6^3S,4S)-1^1-ethyl-2^5-hydroxy-1^2-(2-((S)-1-methoxyethyl)pyridin-3-yl)-10,10-dimethyl-5,7-dioxo-6^1,6^2,6^3,6^4,6^5,6^6-hexahydro-1^1H-8-oxa-1(5,3)-indola-6(1,3)-pyridazina-2(1,3)-benzenacycloundecaphane-4-yl)amino)-3-methyl-1-oxobutan-2-yl)-N-methylnicotinamide] |  | 1000 to 10000 nM | < 5000 nM |  |  |
| CCn1c(-c2cccnc2[C@H](C)OC)c2c3cc(ccc31)-c1cc(O)cc(c1)C[C@H](NC(=O)[C@H](C(C)C)N(C)C(=O)N1CCN(C(=O)[C@H]3CN3)CC1)C(=O)N1CCC[C@H](N1)C(=O)OCC(C)(C)C2 [Example 177, 4-((R)-aziridine-2-carbonyl)-N-((2S)-1-(((6^3S,4S)-1^1-ethyl-2^5-hydroxy-1^2-(2-((S)-1-methoxyethyl)pyridin-3-yl)-10,10-dimethyl-5,7-dioxo-6^1,6^2,6^3,6^4,6^5,6^6-hexahydro-1^1H-8-oxa-1(5,3)-indola-6(1,3)-pyridazina-2(1,3)-benzenacycloundecaphane-4-yl)amino)-3-methyl-1-oxobutan-2-yl)-N-methylpiperazine-1-carboxamide] |  | 1000 to 10000 nM | < 5000 nM |  |  |
| CCn1c(-c2cccnc2[C@H](C)OC)c2c3cc(ccc31)-c1cc(O)cc(c1)C[C@H](NC(=O)[C@H](C(C)C)N(C)C(=O)CN(C)C(=O)[C@H]1CN1CCCN1CCCC1=O)C(=O)N1CCC[C@H](N1)C(=O)OCC(C)(C)C2 (stereo partly drawn) [Example 268, (2R)—N-(2-(((2S)-1-(((6^3S,4S)-1^1-ethyl-2^5-hydroxy-1^2-(2-((S)-1-methoxyethyl)pyridin-3-yl)-10,10-dimethyl-5,7-dioxo-6^1,6^2,6^3,6^4,6^5,6^6-hexahydro-1^1H-8-oxa-1(5,3)-indola-6(1,3)-pyridazina-2(1,3)-benzenacycloundecaphane-4-yl)amino)-3-methyl-1-oxobutan-2-yl)(methyl)amino)-2-oxoethyl)-N-methyl-1-(3-(2-oxopyrrolidin-1-yl)propyl)aziridine-2-carboxamide] |  |  |  | < 5000 nM | 1000 to 10000 nM |
